Results as given in patent US9113629B2, “4-amino-6-(4-substituted-phenyl)-picolinates and 6-amino-2-(4-substituted-phenyl)-pyrimidine-4-carboxylates and their use as herbicides” (DOW AGROSCIENCES LLC, priority 2013, dated 2015).
Like-named read-outs stand apart in the source and are kept apart here.

Legend:
[1] = test system: Key Broadleaf Weed and Crop Species; test: Post-emergent Test II herbicidal activity (Table 5); format: in vivo; conditions: post-emergence, 336 h, 14 days after application; for pest or weed control at 70 g/ha: application rate 70 g ai/ha; for pest or weed control at 140 g/ha: application rate 140 g ai/ha
Outline: (§1)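 Injury was rated visually 14 d after treatment on a 0–100% scale against untreated controls. Test compounds, formulated with crop oil concentrate and surfactant and serially diluted down to 1/16× of the top rate, were applied by track sprayer at 187 L/ha onto first- to second-true-leaf seedlings.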

[2] = test system: Key Grass and Sedge Weeds as well as Grass Crops; test: Post-emergent Test II herbicidal activity (Table 6); format: in vivo; conditions: post-emergence, 336 h; for pest or weed control at 70 g/ha: 70 g ai/ha; for pest or weed control at 140 g/ha: 140 g ai/ha
Outline: as §1

[3] = ABUTH: velvetleaf (Abutilon theophrasti), read-out: Visual Growth Reduction (%) 14 Days After Application, ABUTH
[4] = AMARE: redroot pigweed (Amaranthus retroflexus), read-out: Visual Growth Reduction (%) 14 Days After Application, AMARE
[5] = BRSNN: oilseed-rape, canola (Brassica napus), read-out: Visual Growth Reduction (%) 14 Days After Application, BRSNN
[6] = CHEAL: lambsquarters (Chenopodium album), read-out: Visual Growth Reduction (%) 14 Days After Application, CHEAL
[7] = EPHHL: wild poinsettia (Euphorbia heterophylla), read-out: Visual Growth Reduction (%) 14 Days After Application, EPHHL
[8] = HELAN: sunflower (Helianthus annuus), read-out: Visual Growth Reduction (%) 14 Days After Application, HELAN
[9] = VIOTR: wild pansy (Viola tricolor), read-out: Visual Growth Reduction (%) 14 Days After Application, VIOTR
[10] = CYPES: yellow nutsedge (Cyperus esculentus), read-out: Visual Growth Reduction (%) 14 Days After Application, CYPES
[11] = DIGSA: crabgrass (Digitaria sanguinalis), read-out: Visual Growth Reduction (%) 14 Days After Application, DIGSA
[12] = ECHCG: barnyardgrass (Echinochloa crus-galli), read-out: Visual Growth Reduction (%) 14 Days After Application, ECHCG
[13] = ORYSA: rice (Oryza sativa), crop, read-out: Visual Growth Reduction (%) 14 Days After Application, ORYSA
[14] = SETFA: giant foxtail (Setaria faberi), read-out: Visual Growth Reduction (%) 14 Days After Application, SETFA
[15] = SORVU: grain sorghum (Sorghum vulgare), read-out: Visual Growth Reduction (%) 14 Days After Application, SORVU
[16] = TRZSS (wheat, Triticum aestivum), crop, read-out: Visual Growth Reduction (%) 14 Days After Application, TRZSS
[17] = ZEAMX: maize, corn (Zea mays), crop, read-out: Visual Growth Reduction (%) 14 Days After Application, ZEAMX

Compound	pest or weed control at 70 g/ha [1, 3]	pest or weed control at 140 g/ha [1, 3]	pest or weed control at 70 g/ha [1, 4]	pest or weed control at 140 g/ha [1, 4]	pest or weed control at 70 g/ha [1, 5]	pest or weed control at 140 g/ha [1, 5]	pest or weed control at 70 g/ha [1, 6]	pest or weed control at 140 g/ha [1, 6]	pest or weed control at 70 g/ha [1, 7]	pest or weed control at 140 g/ha [1, 7]	pest or weed control at 70 g/ha [1, 8]	pest or weed control at 140 g/ha [1, 8]	pest or weed control at 70 g/ha [1, 9]	pest or weed control at 140 g/ha [1, 9]	pest or weed control at 70 g/ha [2, 10]	pest or weed control at 140 g/ha [2, 10]	pest or weed control at 70 g/ha [2, 11]	pest or weed control at 140 g/ha [2, 11]	pest or weed control at 140 g/ha [2, 12]	pest or weed control at 70 g/ha [2, 13]	other results
COC(=O)c1nc(-c2ccc(F)cc2)c(F)c(N)c1Cl [Compound 204]	95 to 100%	95 to 100%	95 to 100%	95 to 100%	85 to 94%	95 to 100%	95 to 100%	95 to 100%	95 to 100%	95 to 100%	95 to 100%	95 to 100%	75 to 84%	95 to 100%	85 to 94%	85 to 94%	60 to 74%	60 to 74%	95 to 100%	0 to 29%	pest or weed control at 70 g/ha [2, 12]: 95 to 100%; pest or weed control at 140 g/ha [2, 13]: 0 to 29%; pest or weed control at 70 g/ha [2, 14]: 0 to 29%; pest or weed control at 140 g/ha [2, 14]: 45 to 59%; pest or weed control at 70 g/ha [2, 15]: 75 to 84%; pest or weed control at 140 g/ha [2, 15]: 85 to 94%; pest or weed control at 70 g/ha [2, 16]: 45 to 59%; pest or weed control at 140 g/ha [2, 16]: 60 to 74%; pest or weed control at 70 g/ha [2, 17]: 75 to 84%; pest or weed control at 140 g/ha [2, 17]: 75 to 84%; melting point: 131 °C
COC(=O)c1nc(-c2ccc(OC(F)F)c(F)c2)c(F)c(N)c1Cl [Compound 152]	85 to 94%	85 to 94%	85 to 94%	85 to 94%	85 to 94%	85 to 94%	85 to 94%	85 to 94%	95 to 100%	95 to 100%	75 to 84%	85 to 94%	0 to 29%	0 to 29%	60 to 74%	95 to 100%	45 to 59%	75 to 84%	85 to 94%	0 to 29%	pest or weed control at 140 g/ha [2, 13]: 0 to 29%; pest or weed control at 70 g/ha [2, 14]: 0 to 29%; pest or weed control at 140 g/ha [2, 14]: 45 to 59%; pest or weed control at 70 g/ha [2, 15]: 45 to 59%; pest or weed control at 140 g/ha [2, 15]: 45 to 59%; pest or weed control at 70 g/ha [2, 16]: 0 to 29%; pest or weed control at 140 g/ha [2, 16]: 0 to 29%; pest or weed control at 70 g/ha [2, 17]: 95 to 100%; pest or weed control at 140 g/ha [2, 17]: 95 to 100%; melting point: 112 to 114 °C
Nc1c(F)c(-c2ccc(Br)c(F)c2)nc(C(=O)O)c1Cl [Compound 21]	95 to 100%	95 to 100%	95 to 100%	95 to 100%	95 to 100%	95 to 100%	95 to 100%	95 to 100%	95 to 100%	95 to 100%	95 to 100%	95 to 100%	95 to 100%	95 to 100%	95 to 100%	95 to 100%	75 to 84%	75 to 84%	95 to 100%	0 to 29%	pest or weed control at 70 g/ha [2, 12]: 95 to 100%; pest or weed control at 140 g/ha [2, 13]: 0 to 29%; pest or weed control at 70 g/ha [2, 14]: 95 to 100%; pest or weed control at 140 g/ha [2, 14]: 95 to 100%; pest or weed control at 70 g/ha [2, 15]: 95 to 100%; pest or weed control at 140 g/ha [2, 15]: 95 to 100%; pest or weed control at 70 g/ha [2, 16]: 60 to 74%; pest or weed control at 140 g/ha [2, 16]: 60 to 74%; pest or weed control at 70 g/ha [2, 17]: 95 to 100%; pest or weed control at 140 g/ha [2, 17]: 95 to 100%; melting point: 117 to 120 °C
